Molecules are shown by their SMILES. Where two headings read alike, the source gives them in different places.

The text below walks through data of patent US11472778B2, “Hepatitis C virus NS3/4A protease inhibitors” (priority 2017, dated 2022).

The target in assay [1] is GT1a R155K NS3/4A protease (UniProt P27958, R1181K, species not given). The format is biochemical, Hepatitis C virus. The procedure: (§1) For each assay, 2 nM of NS3/4A protease (GT1a, R155K and D168A) was pre-incubated at room temperature for 1 h with increasing concentration of inhibitors in assay buffer (50 mM Tris, 5% glycerol, 10 mM DTT, 0.6 mM LDAO, and 4% dimethyl sulfoxide, pH 7.5). Inhibition assays were performed in non-binding surface 96-well black half-area plates (Corning) in a reaction volume of 60 μL. […] Three independent data sets were collected for each inhibitor with each protease construct. […] Gibbs free energy of binding was calculated using the following equation: ΔG=RTlnKi

Assay [2] deals with GT1a R155K NS3/4A protease. The format is biochemical, Hepatitis C virus. The note with it: fold change in Ki, R155K relative to WT. The procedure:
as §1

In assay [3] the target is T1, wild-type GT1a NS3/4A protease (UniProt P27958).
T1 construct: Ki WT; other: wild-type HCV NS3/4A protease
The format is biochemical, Hepatitis C virus. A digest of the protocol: (§2)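 Enzyme (GT1a wild type or D168A mutant, 2 nM) was preincubated with inhibitor dilutions for 1 h at room temperature in pH 7.5 Tris buffer with glycerol, DTT, LDAO and 4% DMSO.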

The target in assay [4] is T2, GT1a D168A NS3/4A protease (UniProt P27958, D1194A, species not given).
T2 construct: rows headed: Ki (nM) D168A; Ki D168A; other: D168A variant
In kind it is biochemical, Hepatitis C virus. In outline:
as §2

Assay [5] addresses GT1a D168A NS3/4A protease. The format is biochemical, Hepatitis C virus. Particulars: for Ki D168A (fold change): fold change in Ki, D168A relative to WT. A digest of the protocol:
as §2

Assay [6] concerns HCV replicon D168V variant in Huh7 cells. As to the kind of experiment: microbe, parasite or virus in culture. The format is cell-based, Hepatitis C virus. Particulars: for EC50: Hepatitis C virus. In outline: (§3)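 Luciferase signal (RLU) at 96 h post-electroporation served as the replication read-out. Huh7 cells received replicon RNA of a Con1 1b backbone bearing H77 1a NS3, wild-type or site-directed mutant, and were dosed with increasing protease inhibitor concentrations.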

The target in another assay is T3, GT3a NS3/4A protease (Hepatitis C virus genotype 3a, UniProt Q81495).
T3 construct: drug-resistant variant D168A, and GT3a NS3/4A protease; made in house; host or cells: Escherichia coli BL21(DE3)
As to the kind of experiment: biochemical. A digest of the protocol: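 Protease at 2 nM pre-incubated 1 h at room temperature with increasing inhibitor concentrations in 50 mM Tris, 5% glycerol, 10 mM DTT, 0.6 mM LDAO, 4% DMSO. Three independent data sets per inhibitor and construct.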

For assay [7], the system named is wild-type HCV replicon in Huh7 cells. As to the kind of experiment: Cell-based drug susceptibility (replicon) assay, wild-type. Particulars: Hepatitis C virus, read-out: Replicon EC50 (nM) WT. A digest of the protocol: as §3
(In antiviral work, replicon cells carry a viral genome segment that copies itself.)

Assay [8] deals with T4, GT1a D168A NS3/4A protease (UniProt P27958, C1185S/D1194A, species not given).
T4 construct: Ki (nM) GT1a D168A NS3/4A Protease
In kind it is biochemical, Hepatitis C virus. Particulars: read-out: Ki (nM) GT1a D168A NS3/4A Protease. In outline: as §2

Assay [9] addresses T5, wild-type GT1a NS3/4A protease (UniProt P27958, C1185S, species not given).
T5 construct: Ki (nM) GT1a WT NS3/4A Protease
In kind it is biochemical, Hepatitis C virus. The note with it: read-out: Ki (nM) GT1a WT NS3/4A Protease. A digest of the protocol: as §2

The test system of assay [10] is HCV replicon R155K variant in Huh7 cells. As to the kind of experiment: microbe, parasite or virus in culture. In kind it is cell-based, Hepatitis C virus. The note with it: for EC50: Hepatitis C virus. In outline: as §3
For assay [11], the system named is HCV replicon A156T variant in Huh7 cells. As to the kind of experiment: microbe, parasite or virus in culture. In kind it is cell-based, Hepatitis C virus. The note with it: for EC50: Hepatitis C virus. A digest of the protocol:
as §3

In assay [12] the test system is HCV replicon D168A variant in Huh7 cells. Nature of the assay: microbe, parasite or virus in culture. The format is cell-based, Hepatitis C virus. The note with it: for EC50: Hepatitis C virus. A digest of the protocol: as §3
Where [13] appears, read: read-out: Ki (nM) R155K, Table 8, linear inhibitors.
Setting [14] is: read-out: Ki R155K, R155K variant.
The mark [15] stands for this setting: read-out: Ki (nM) WT, Table 8, linear inhibitors.
Setting [16] is: read-out: Ki WT, wild-type HCV NS3/4A protease.
[17] abbreviates: read-out: Ki (nM) D168A, Table 8, linear inhibitors.
Where [18] appears, read: read-out: Ki D168A, D168A variant.
Setting [19] is: Table 4, relative to WT replicon.

T3 sequence (Q81495 1033-1214): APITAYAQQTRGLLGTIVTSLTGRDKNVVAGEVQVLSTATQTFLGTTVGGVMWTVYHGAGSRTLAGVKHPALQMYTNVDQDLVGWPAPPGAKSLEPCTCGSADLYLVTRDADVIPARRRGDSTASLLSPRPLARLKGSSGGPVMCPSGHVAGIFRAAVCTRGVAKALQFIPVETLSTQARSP

On to `C=C[C@@H]1C[C@]1(NC(=O)[C@@H]1C[C@@H](Oc2nc3cc(OC)ccc3nc2C)CN1C(=O)[C@@H](NC(=O)OC(C)(C)C)C(C)(C)C)C(=O)NS(=O)(=O)C1CC1` [Compound 9b, tert-Butyl ((S)-1-((2S,4R)-2-(((1R,2S)-1-((cyclopropylsulfonyl)carbamoyl)-2-vinylcyclopropyl)carbamoyl)-4-((7-methoxy-3-methylquinoxalin-2-yl)oxy)pyrrolidin-1-yl)-3,3-dimethyl-1-oxobutan-2-yl)carbamate], for which the Ki in [1] (setting [13]) turned out to be 8.5 ± 2.1 nM; in assay [1] (setting [14]), 8.5 ± 2.1 nM; in [3] (setting [15]) it was 18 ± 1.6 nM; in [3] (setting [16]), 18 ± 1.6 nM; in [4] (setting [17]), 290 ± 24 nM; in [4] (setting [18]), 290 ± 24 nM. Also, the “Ki R155K (fold change)” value in assay [2] came out at 0.5. Moreover, the “Ki D168A (fold change)” value in [5] came out at 16.
Consider `C=C[C@@H]1C[C@]1(NC(=O)[C@@H]1C[C@@H](Oc2nc3cc(OC)ccc3nc2C(C)C)CN1C(=O)[C@@H](NC(=O)OC(C)(C)C)C(C)(C)C)C(=O)NS(=O)(=O)C1CC1` [Compound 9c, tert-Butyl ((S)-1-((2S,4R)-2-(((1R,2S)-1-((cyclopropylsulfonyl)carbamoyl)-2-vinylcyclopropyl)carbamoyl)-4-((3-isopropyl-7-methoxyquinoxalin-2-yl)oxy)pyrrolidin-1-yl)-3,3-dimethyl-1-oxobutan-2-yl)carbamate], for which the Ki came to 49 ± 11 nM in assay [1] (setting [13]); 49 ± 11 nM in assay [1] (setting [14]); 32 ± 5.1 nM in assay [3] (setting [15]); 32 ± 5.1 nM in assay [3] (setting [16]); 1090 ± 137 nM in assay [4] (setting [17]); 1090 ± 137 nM in assay [4] (setting [18]). The “Ki R155K (fold change)” value in assay [2] worked out at 1.5. Further, the “Ki D168A (fold change)” value in [5] stood at 34.
Take `C=C[C@@H]1C[C@]1(NC(=O)[C@@H]1C[C@@H](Oc2nc3cc(OC)ccc3nc2C(F)(F)F)CN1C(=O)[C@@H](NC(=O)OC(C)(C)C)C(C)(C)C)C(=O)NS(=O)(=O)C1CC1` [Compound 9e, tert-Butyl ((S)-1-((2S,4R)-2-(((1R,2S)-1-((cyclopropylsulfonyl)carbamoyl)-2-vinylcyclopropyl)carbamoyl)-4-((7-methoxy-3-(trifluoromethyl)quinoxalin-2-yl)oxy)pyrrolidin-1-yl)-3,3-dimethyl-1-oxobutan-2-yl)carbamate]: the Ki worked out at 24 ± 3.3 nM in assay [1] (setting [13]); 24 ± 3.3 nM in [1] (setting [14]); 87 ± 18 nM in assay [3] (setting [15]); 87 ± 18 nM in [3] (setting [16]); 723 ± 80 nM in [4] (setting [17]); 723 ± 80 nM in assay [4] (setting [18]). For the same molecule, the “Ki R155K (fold change)” value in assay [2] was 0.3. Further, the “Ki D168A (fold change)” value in assay [5] was found to be 8.
With `C=C[C@@H]1C[C@]1(NC(=O)[C@@H]1C[C@@H](Oc2nc3cc(OC)ccc3nc2CC)CN1C(=O)[C@@H](NC(=O)OC(C)(C)C)C(C)(C)C)C(=O)NS(=O)(=O)C1(C)CC1` [Compound 10a, tert-Butyl ((S)-1-((2S,4R)-4-((3-ethyl-7-methoxyquinoxalin-2-yl)oxy)-2-(((1R,2S)-1-(((1-methylcyclopropyl)sulfonyl)carbamoyl)-2-vinylcyclopropyl)carbamoyl)pyrrolidin-1-yl)-3,3-dimethyl-1-oxobutan-2-yl)carbamate], the Ki is 14 ± 1.1 nM in assay [1] (setting [13]); 14 ± 1.1 nM in [1] (setting [14]); 16 ± 1.3 nM in [3] (setting [15]); 16 ± 1.3 nM in assay [3] (setting [16]); 385 ± 31 nM in assay [4] (setting [17]); 385 ± 31 nM in [4] (setting [18]). Further, in assay [2], the “Ki R155K (fold change)” value amounted to 0.9. Further, the “Ki D168A (fold change)” value in assay [5] is reported as 24.
For `C=C[C@@H]1C[C@]1(NC(=O)[C@@H]1C[C@@H](Oc2nc3cc(OC)ccc3nc2C)CN1C(=O)[C@@H](NC(=O)OC(C)(C)C)C(C)(C)C)C(=O)NS(=O)(=O)C1(C)CC1` [Compound 10b, tert-Butyl ((S)-1-((2S,4R)-4-((7-methoxy-3-methylquinoxalin-2-yl)oxy)-2-(((1R,2S)-1-(((1-methylcyclopropyl)sulfonyl)carbamoyl)-2-vinylcyclopropyl)carbamoyl)pyrrolidin-1-yl)-3,3-dimethyl-1-oxobutan-2-yl)carbamate], the Ki in [1] (setting [13]) was 14 ± 1.7 nM; in [1] (setting [14]) it was 14 ± 1.7 nM; in assay [3] (setting [15]), 14 ± 2.1 nM; in assay [3] (setting [16]), 14 ± 2.1 nM; in [4] (setting [17]), 265 ± 26 nM; in assay [4] (setting [18]), 265 ± 26 nM. Also, in [2], the “Ki R155K (fold change)” value amounted to 1.0. Moreover, the “Ki D168A (fold change)” value in [5] is 19.
As to `COc1ccc2nc(C(F)(F)F)c(O[C@@H]3C[C@H]4C(=O)N[C@]5(C(=O)NS(=O)(=O)C6(C)CC6)C[C@H]5/C=C\CCCCC[C@H](NC(=O)OC5CCCC5)C(=O)N4C3)nc2c1` [Compound 23d, Cyclopentyl ((2R,6S,13aS,14aR,16aS,Z)-2-((7-methoxy-3-(trifluoromethyl)quinoxalin-2-yl)oxy)-14a-(((1-methylcyclopropyl)sulfonyl)carbamoyl)-5,16-dioxo-1,2,3,5,6,7,8,9,10,11,13a,14,14a,15,16,16a-hexadecahydrocyclopropa[e]pyrrolo[1,2-a][1,4]diazacyclopentadecin-6-yl)carbamate], the EC50 worked out at 11.4 nM in [6] (Huh-7, 96 h, read-out: Replicon EC50 (nM) D168V, Table 2, Huh7 cells, luciferase 96 h); 11.4 nM in assay [6] (Huh-7, read-out: Replicon EC50 (nM) D168V, Table 4); 4.04 nM in [7] (Huh-7, 96 h, Table 2, Huh7 cells, luciferase 96 h); 4.04 nM in assay [7] (Huh-7, Table 4); 6.9 nM in [10] (Huh-7, 96 h, read-out: Replicon EC50 (nM) R155K, Table 2, Huh7 cells, luciferase 96 h); 6.9 nM in [10] (Huh-7, read-out: Replicon EC50 (nM) R155K, Table 4). For the same molecule, the EC50 in assay [11] (Huh-7, 96 h, read-out: Replicon EC50 (nM) A156T, Table 2, Huh7 cells, luciferase 96 h) was 75.9 nM; in assay [11] (Huh-7, read-out: Replicon EC50 (nM) A156T, Table 4), 75.9 nM; in assay [12] (Huh-7, 96 h, read-out: Replicon EC50 (nM) D168A, Table 2, Huh7 cells, luciferase 96 h) it was 8.46 nM; in assay [12] (Huh-7, read-out: Replicon EC50 (nM) D168A, Table 4), 8.46 nM. Further, in assay [6] (setting [19]), the “Replicon EC50 (Fold change) D168V” value is recorded as “(3) fold”. For the same molecule, the Ki at GT3a NS3/4A protease came out at 433 nM; in [8] (Table 1) it was 110 nM; in assay [8] (Table 3) it was 110 ± 14 nM; in assay [9] (Table 1), 8.14 nM; in assay [9] (Table 3), 8.14 nM. Also, the “Ki (Fold change) GT3a NS3/4A Protease” value on GT3a NS3/4A protease (Table 3, Ki GT3a relative to GT1a WT) is given as “(53) fold”. Also, in [5] (Table 3, Ki D168A relative to GT1a WT), the “Ki (Fold change) GT1a D168A NS3/4A Protease” value is reported as “(14) fold”. Also, the “Replicon EC50 (Fold change) R155K” value in assay [10] (setting [19]) is listed as “(2) fold”. Moreover, in assay [11] (setting [19]), the “Replicon EC50 (Fold change) A156T” value is recorded as “(19) fold”. Besides, in assay [12] (setting [19]), the “Replicon EC50 (Fold change) D168A” value was “(2) fold”.

What is called EC50 is the midpoint of the concentration-response curve.
